Reference: patent publication US12447167B2, “GM-CSF-producing t-cell control agent and Th1/Th2 immune balance regulator” (National Center of Neurology and Psychiatry, priority 2014, dated 2025)

Tests used:
[1] = Disposition after single oral dose, rat; assay type: in vivo; conditions: male rat, 10 mg/kg single oral, 14C-labeled, fasting
Protocol: After a single dose of compound 31 labeled with ^14C was orally administered at a predetermined dose to each of a male mouse, a male rat, and a male cynomolgus monkey under fasting conditions, the concentration in blood was measured after a lapse of a given time, and parameters such as maximum plasma concentration Cmax, time Tmax to reach the maximum plasma concentration, half-life t1/2, area under curve AUC0-∞, mean retention time MRT0-∞, and bioavailability BA were calculated. The concentration in blood in humans (normal subjects) was measured and each of the parameters was calculated, in the similar manner as above except that ^14C-unlabeled compound 31 was used.
In the tables, “N.D.” means not detected.

IL-4 = IL-4 expression level of sorted CD4-positive memory T-cells of MS patients (ELISA of culture supernatant); assay type: in vivo, human; conditions: 0.3 mg single oral
Protocol: (§1) A single dose of compound 31, which is a synthetic glycolipid of the present invention, described in the first aspect was orally administered to each of 2 MS patients (subjects) shown in Table 2 above after obtainment of informed consent. The dose was set to 0.3 mg per person.
(§2) Subsequently, T-cell subfractions were prepared from the peripheral blood of each subject by using the density gradient centrifugation method. First, a total of 20 mL of blood was collected from the vein of each subject 24 hours (1st day), 48 hours (2nd day), 72 hours (3rd day), 168 hours (7th day), and 192 hours (8th day) after the administration of compound 31 by using two 10-mL heparin sodium-containing vacuum blood collection tubes. For a control, 20 mL of blood was similarly collected from the vein of each subject one day before the administration of compound 31.
(§3) The collected PBMCs were stained with antibodies by the following method. First, 10 μL of a solution consisting of 20 μL of MACS buffer, 0.25 μL of APC-Cy7-anti-CD3 antibody (BioLegend, Inc.), 1 μL of PB-anti-CD4 antibody (BioLegend, Inc.), 1 μL of PerCP-Cy5.5-anti-CD45RA antibody (BioLegend, Inc.), and 1 μL of PC7-anti-CD56 antibody (Beckman Coulter, Inc.) was added to 6×10^6 cells of PBMCs, thoroughly mixed by vortexing, and then left on ice for 20 minutes. CD56 is a detection marker of cells having NK activity, and CD3^−CD56^− cells indicate being antigen-presenting cells (APCs). […]
(§4) mCD4T and APC obtained by the sorting were each suspended in a medium consisting of 500 mL of RPMI1640 (GIBCO/Thermo Fisher Scientific Inc.), 5 mL of glutamine (200 mM, Wako Pure Chemical Industries, Ltd.), 5 mL of Pen/strep (10,000 U/mL, GIBCO/Thermo Fisher Scientific Inc.), 0.5 mL of 2-mercaptoethanol (GIBCO/Thermo Fisher Scientific Inc.), and 50 mL of 10% (v/v) Cellect FETAL BOVINE SERUM (MP Biomedicals, LLC), and the number of cells was measured. […]
(§5) After the culture, a culture supernatant was collected, and IFN-γ, IL-4, IL-17, and GM-CSF were measured by the ELISA method. […]

GM-CSF = GM-CSF expression level of sorted CD4-positive memory T-cells of MS patients (ELISA of culture supernatant); assay type: in vivo, human; conditions: 0.3 mg single oral
Protocol: as §1, §2, §3, §4, §5

AUC(0-inf) ([1]; blood): 3330 ng·h/mL
AUC(0-t) ([1]; blood): 3130 ng·h/mL
half-life ([1]; blood): 26 h
MRT inf ([1]; blood, read-out: MRT0-∞): 32.4 h
BA [1]: 0.51%
Rate of absorption [1]: 0.96%
concentration in blood ([1]; 4 h): 31
concentration in blood ([1]; 8 h): 128
concentration in blood ([1]; 12 h): 101
concentration in blood ([1]; 24 h): 47.1
concentration in blood ([1]; 48 h): 18.5
concentration in blood ([1]; 72 h): 10.2
Cmax ([1]; plasma): 128 ng/mL
Tmax ([1]; plasma): 8 h
Compound: CCCCCCCCCCCCCCCCCCCCCCCC(=O)NC(COC1OC(CO)C(O)C(O)C1O)[C@H](O)C(O)CCCCC (stereo in doubt) [compound 31, (2S,3S,4R)-1-O-(α-D-galactosyl)-2-(N-tetracosanoylamino)-1,3,4-nonanetriol]
IL-4 expression level (IL-4; day 8, MBP stimulation, day −1 value 3.63): 6.38
IL-4 expression level (IL-4; day 8, OVA stimulation, day −1 value 3.66): 7.19
change of expression level of IL-4 (IL-4; day8 vs day-1): increased
GM-CSF expression level (GM-CSF; day 8, MBP stimulation, day −1 value 153.15): 50.81
GM-CSF expression level (GM-CSF; day 8, OVA stimulation, day −1 value 224.87): 168.45
change of expression level of GM-CSF (GM-CSF; day8 vs day-1): decreased
